Results on 45 compounds are retold here after patent US10233186B2, “Inhibitors of activin receptor-like kinase” (BLUEPRINT MEDICINES CORPORATION, priority 2016, dated 2019).

For assay [1], the target named is T1, ALK2 R206H (GST-tagged mutant ALK2) (Homo sapiens, UniProt Q04771, R206H).
T1 construct: purchased Carna Bioscience or ThermoFisher 09-148 or PV6232
T1 sequence (Q04771 21-509 R206H): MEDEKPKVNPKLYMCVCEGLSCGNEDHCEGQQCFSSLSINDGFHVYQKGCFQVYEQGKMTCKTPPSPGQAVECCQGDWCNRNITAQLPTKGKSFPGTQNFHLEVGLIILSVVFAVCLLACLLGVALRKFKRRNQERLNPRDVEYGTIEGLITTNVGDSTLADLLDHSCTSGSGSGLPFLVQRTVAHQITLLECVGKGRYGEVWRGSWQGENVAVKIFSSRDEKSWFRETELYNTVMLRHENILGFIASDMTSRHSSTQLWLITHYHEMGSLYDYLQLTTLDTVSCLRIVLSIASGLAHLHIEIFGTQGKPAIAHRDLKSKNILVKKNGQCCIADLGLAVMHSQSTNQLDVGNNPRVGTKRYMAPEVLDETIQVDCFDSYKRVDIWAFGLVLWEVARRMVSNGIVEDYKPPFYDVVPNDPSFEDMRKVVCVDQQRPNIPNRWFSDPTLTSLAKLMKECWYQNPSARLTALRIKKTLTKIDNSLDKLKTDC
The assay can be described thus: ALK binding assay (LANTHASCREEN TR-FRET competitive binding, displacement of Kinase Tracer 178). The settings on record: ALK2 R206H, LANTHASCREEN TR-FRET competitive binding; read-out: Binding Assay (IC50).

For assay [2], the target named is T2, human ALK2 R206H (Homo sapiens, UniProt Q04771, R206H).
T2 construct: expressed in transfected cells; host or cells: HEK293 (ATCC CRL1573), lentivirus transduction, blasticidin selection
T2 sequence (Q04771 21-509 R206H): T1 sequence (Q04771 21-509 R206H)
The assay can be described thus: Cell-based ALK2-R206H cell activity assay (Smad1-Ser463/Ser465 phosphorylation by AlphaLISA in HEK293-ALK2-R206H cells). The settings on record: read-out: Cell Line (Cell Assay IC50). The gist of the method: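 Stable HEK293 cells expressing C-terminally FLAG-tagged human ALK2 R206H (lentiviral, blasticidin-selected) were treated with compounds in 10-point, 3-fold dilutions from 10 μM or 1 μM top, in duplicate. Smad1 Ser463/Ser465 phosphorylation was read by AlphaLISA.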
On the technique in general: Bead proximity is the source of the signal in Alpha formats.

Usually IC50 stands for the concentration that inhibits the measured activity by half.

Some results are limits rather than exact numbers.

As for `CCN1CCN(c2ccc(-c3cc4c(N5CCN(C(=O)C6CC6)CC5)ccnn4c3)c(OC(F)F)c2)CC1` [Compound 427], the IC50 is less than 10 nM in assay [1] and 100 to 500 nM in assay [2].

For `CCN1CCC(c2ccc(-c3cc4c(N5CCN(C(=O)N6CCC(C#N)CC6)CC5)ccnn4c3)cc2)CC1` [Compound 428], the IC50 is less than 10 nM in assay [1] and 100 to 500 nM in assay [2].

For `CCN1CCN(c2ccc(-c3cc4c(N5CCN(C(=O)[C@H]6CC[C@H](C#N)CC6)CC5)ccnn4c3)cc2)CC1` [Compound 429], the IC50 in assay [1] is less than 10 nM; in assay [2], less than 100 nM.

On to `CC(C)N1CCC(c2ccc(-c3cc4c(N5CCN(C(=O)OCC(F)(F)F)CC5)ccnn4c3)cc2)CC1` [Compound 430], for which the IC50 is less than 10 nM in assay [1] and less than 100 nM in assay [2].

With `CCN1CCC(c2ccc(-c3cc4c(N5CCN(C(=O)C6CCC(C)(O)CC6)CC5)ccnn4c3)cc2)CC1` (stereo not drawn) [Compound 431], the results for the IC50 in assay [1] and in assay [2] were less than 10 nM and 100 to 500 nM, respectively.

Take `CC(C)N1CCC(c2ccc(-c3cc4c(N5CCN(C(=O)[C@H]6CC[C@H](O)CC6)CC5)ccnn4c3)nc2)CC1` [Compound 432]: the IC50 in assay [1] is less than 10 nM; in assay [2], less than 100 nM.

With `CC(C)N1CCC[C@@H](c2ccc(-c3cc4c(N5CCN(C(=O)[C@H]6CC[C@H](C#N)CC6)CC5)ccnn4c3)cc2)C1` [Compound 434], the IC50 is less than 10 nM in assay [1] and less than 100 nM in assay [2].

Regarding `CC(C)N1CCC[C@H](c2ccc(-c3cc4c(N5CCN(C(=O)[C@H]6CC[C@H](C#N)CC6)CC5)ccnn4c3)cc2)C1` [Compound 435], the IC50 in assay [1] is less than 10 nM; in assay [2], less than 100 nM.

For the compound `CC(C)N1CCN(c2ccc(-c3cc4c(N5CCN(C(=O)[C@H]6CC[C@H](C#N)CC6)CC5)ccnn4c3)cc2)CC1` [Compound 436], the half-inhibitory concentration (IC50) was less than 10 nM in assay [1] and less than 100 nM in assay [2].

Take `CC(C)N1CCC(c2ccc(-c3cc4c(N5CCN(C(=O)[C@H]6CC[C@H](C#N)CC6)CC5)ccnn4c3)nc2)CC1` [Compound 437]: the IC50 in assay [1] was less than 10 nM; in assay [2], less than 100 nM.

As to `CC(C)N1CC2(CN(c3ccc(-c4cc5c(N6CCN(C(=O)[C@H]7CC[C@H](O)CC7)CC6)ccnn5c4)cc3)C2)C1` [Compound 441], the IC50 was less than 10 nM in assay [1] and less than 100 nM in assay [2].

`CC(C)N1CC2(CN(c3ccc(-c4cc5c(N6CCN(C(=O)[C@H]7CC[C@H](C#N)CC7)CC6)ccnn5c4)cc3)C2)C1` [Compound 442]: the IC50 in assay [1] is less than 10 nM; in assay [2], less than 100 nM.

For the compound `CCN1CCC(c2ccc(-c3cc4c(N5CCN(C(=O)C6CC(O)(C(F)(F)F)C6)CC5)ccnn4c3)cc2)CC1` (stereo not drawn) [Compound 445], the values for the IC50 in assay [1] and in assay [2] were less than 10 nM and less than 100 nM, respectively.

Take `CCN1CCN(c2ccc(-c3cc4c(N5CCN(C(=O)C6(c7cccc(Cl)c7)CC6)CC5)ccnn4c3)cc2)CC1` [Compound 447]: the IC50 is 10 to 50 nM in assay [1] and greater than 500 nM in assay [2].

As for `CCOC(=O)N1CCN(c2ccnn3cc(-c4cnc(N5CCN(C(C)C)CC5)cn4)cc23)CC1` [Compound 448, ethyl 4-(6-(5-(4-isopropylpiperazin-1-yl)pyrazin-2-yl)pyrrolo[1,2-b]pyridazin-4-yl)piperazine-1-carboxylate], the IC50 was less than 10 nM in assay [1] and 100 to 500 nM in assay [2].

With `O=C(C1CC1)N1CCN(c2ccnn3cc(-c4ccc([C@H]5CCCN5)nc4)cc23)CC1` [Compound 451], the IC50 in assay [1] was less than 10 nM; in assay [2], less than 100 nM.

On to `O=C(C1CC1)N1CCN(c2ccnn3cc(-c4ccc(C5CCCN5)cn4)cc23)CC1` (stereo not drawn) [Compound 452], for which the IC50 in assay [1] was less than 10 nM; in assay [2], less than 100 nM.

Take `O=C(C1CC1)N1CCN(c2ccnn3cc(-c4ccc(C5CCCN5)cn4)cc23)CC1` (stereo not drawn) [Compound 453]: the IC50 in assay [1] is less than 10 nM; in assay [2], less than 100 nM.

`O=C(C1CC1)N1CCN(c2ccnn3cc(-c4ccc(C5CCCN5)cn4)cc23)CC1` (stereo not drawn) [Compound 454]: the IC50 in assay [1] is less than 10 nM; in assay [2], 100 to 500 nM.

As for `CC(N)(CO)c1ccc(-c2cc3c(N4CCN(C(=O)C5CC5)CC4)ccnn3c2)cc1` (stereo not drawn) [Compound 455], the IC50 in assay [1] is less than 10 nM; in assay [2] it was less than 100 nM.

For the compound `CCNC(=O)N1CCN(c2ccnn3cc(-c4ccc([C@@H]5CCCN5)nc4)cc23)CC1` [Compound 456], the IC50 in assay [1] was less than 10 nM; in assay [2] it was 100 to 500 nM.

Consider `CCNC(=O)N1CCN(c2ccnn3cc(-c4ccc([C@H]5CCCN5)nc4)cc23)CC1` [Compound 457], for which the values for the 50% inhibitory concentration (IC50) in assay [1] and in assay [2] were less than 10 nM and 100 to 500 nM, respectively.

With `C[C@]1(c2ccc(-c3cc4c(N5CCN(C(=O)C6CC6)CC5)ccnn4c3)cc2)CCCN1` [Compound 459], the IC50 in assay [1] was less than 10 nM; in assay [2] it was less than 100 nM.

For the compound `C[C@@]1(c2ccc(-c3cc4c(N5CCN(C(=O)C6CC6)CC5)ccnn4c3)cc2)CCCN1` [Compound 460], the IC50 is less than 10 nM in assay [1] and less than 100 nM in assay [2].

Consider `N[C@@H]1CCN(c2ccc(-c3cc4c(N5CCN(C(=O)C6CC6)CC5)ccnn4c3)cc2)C1` [Compound 462], for which the figures for the IC50 in assay [1] and in assay [2] were less than 10 nM and 100 to 500 nM, respectively.

`CC1(c2ccc(-c3cc4c(N5CCN(C(=O)C6CC6)CC5)ccnn4c3)nc2)CCCN1` (stereo not drawn) [Compound 463]: the concentration for half-maximal inhibition (IC50) in assay [1] is less than 10 nM; in assay [2], less than 100 nM.

With `O=C(C1CC1)N1CCN(c2ccnn3cc(-c4ccc(C5COCCN5)cc4)cc23)CC1` (stereo not drawn) [Compound 464], the IC50 was less than 10 nM in assay [1] and less than 100 nM in assay [2].

For the compound `CC(C)NC(=O)N1CCN(c2ccnn3cc(-c4ccc(C5CCCN5)cn4)cc23)CC1` (stereo not drawn) [Compound 465], the values for the IC50 in assay [1] and in assay [2] were less than 10 nM and 100 to 500 nM, respectively.

As to `CC(C)NC(=O)N1CCN(c2ccnn3cc(-c4ccc([C@@H]5CCCN5)cn4)cc23)CC1` [Compound 466], the figures for the IC50 in assay [1] and in assay [2] were less than 10 nM and less than 100 nM, respectively.

Consider `CC(C)NC(=O)N1CCN(c2ccnn3cc(-c4ccc([C@H]5CCCN5)cn4)cc23)CC1` [Compound 467], for which the IC50 was less than 10 nM in assay [1] and 100 to 500 nM in assay [2].

In the case of `CCOC(=O)N1CCN(c2ccnn3cc(-c4ccc(C5COCCN5)cc4)cc23)CC1` (stereo not drawn) [Compound 468], the half-maximal inhibitory concentration (IC50) is less than 10 nM in assay [1] and less than 100 nM in assay [2].

Regarding `CC(C)NC(=O)N1CCN(c2ccnn3cc(-c4cnn([C@@H]5CCCNC5)c4)cc23)CC1` [Compound 469], the IC50 in assay [1] is less than 10 nM; in assay [2], less than 100 nM.

For the compound `CC(C)NC(=O)N1CCN(c2ccnn3cc(-c4cnn([C@H]5CCCNC5)c4)cc23)CC1` [Compound 470], the IC50 in assay [1] is less than 10 nM; in assay [2] it was less than 100 nM.

Regarding `CC(C)NC(C)(C)c1ccc(-c2cc3c(N4CCN(C(=O)C5CC5)CC4)ccnn3c2)cc1` [Compound 473], the IC50 in assay [1] is less than 10 nM; in assay [2], less than 100 nM.

For the compound `O=C(C1CC1)N1CCN(c2ccnn3cc(-c4ccc(C5(F)CCNCC5)cc4)cc23)CC1` [Compound 474], the values for the IC50 in assay [1] and in assay [2] were less than 10 nM and 100 to 500 nM, respectively.

Consider `O=C(OC1COC1)N1CCN(c2ccnn3cc(-c4ccc(C5CCCN5)cn4)cc23)CC1` (stereo not drawn) [Compound 475], for which the IC50 was less than 10 nM in assay [1] and less than 100 nM in assay [2].

With `O=C(OC1COC1)N1CCN(c2ccnn3cc(-c4ccc([C@@H]5CCCN5)cn4)cc23)CC1` [Compound 476], the IC50 in assay [1] was less than 10 nM; in assay [2], less than 100 nM.

With `O=C(OC1COC1)N1CCN(c2ccnn3cc(-c4ccc([C@H]5CCCN5)cn4)cc23)CC1` [Compound 477], the results for the IC50 in assay [1] and in assay [2] were less than 10 nM and less than 100 nM, respectively.

As to `CC(C)NC(=O)N1CCN(c2ccnn3cc(-c4ccc(C5COCCN5)cc4)cc23)CC1` (stereo not drawn) [Compound 478], the IC50 is less than 10 nM in assay [1] and less than 100 nM in assay [2].

For `CCOC(=O)N1CCN(c2ccnn3cc(-c4ccc([C@]5(F)CCCNC5)cc4)cc23)CC1` [Compound 479], the IC50 in assay [1] was less than 10 nM; in assay [2] it was less than 100 nM.

Consider `CCOC(=O)N1CCN(c2ccnn3cc(-c4ccc([C@@]5(F)CCCNC5)cc4)cc23)CC1` [Compound 480], for which the IC50 is less than 10 nM in assay [1] and less than 100 nM in assay [2].

`N#CC1(c2ccc(-c3cc4c(N5CCN(C(=O)C6CC6)CC5)ccnn4c3)cc2)CCNCC1` [Compound 481]: the IC50 in assay [1] was less than 10 nM; in assay [2], less than 100 nM.

On to `O=C(C1CC1)N1CCN(c2ccnn3cc(-c4ccc(C56CCN(CC5)CC6)cc4)cc23)CC1` [Compound 482], for which the IC50 in assay [1] is less than 10 nM; in assay [2], less than 100 nM.

For `CCOC(=O)N1CCN(c2ccnn3cc(-c4ccc(C5(C#N)CCNCC5)cc4)cc23)CC1` [Compound 483], the figures for the IC50 in assay [1] and in assay [2] were less than 10 nM and less than 100 nM, respectively.

On to `CC(C)N1CCC[C@H]1c1ccc(-c2cc3c(N4CCN(C(=O)C5CC5)CC4)ccnn3c2)cn1` [Compound 484], for which the figures for the half-inhibitory concentration (IC50) in assay [1] and in assay [2] were less than 10 nM and less than 100 nM, respectively.
